# Assay results as given in patent publication US20130203798A1, “DIAGNOSIS AND TREATMENT OF FUNCTIONAL DYSPEPSIA AND IRRITABLE BOWEL SYNDROME” (EV MED, priority 2012, published 2013).
# Experiments:
# coxsackievirus B3 (CVB3) = assay: Inhibition of enterovirus replication in chronically infected BGMK-DAF cells, viral RNA by qRT-PCR; assay type: cell-based; settings: for Viral RNA Log10: no treatment 6.84
# Protocol: (§1) Oxymatrine is an alkaloid with antiviral and immune boosting effect. […] 200,000 BGMK-DAF cells were infected with coxsackievirus B3,4 (CVB3,4) or echovirus 6,7 (Echo V6,7), previously titrated to cause complete lysis of cells in 48-72 hours, then treated with 0.18 μg of peg-interferon α-2a in 4 hours and 90 hours. Oxymatrine was added at 162 hours post-infection. Viral RNA, expressed in log10 was quantified by qRT-PCR with a cDNA standard, and reduction of log viral RNA calculated based on no-treatment wells. Duplicate wells were combined for viral RNA determination.
# coxsackievirus B4 (CVB4) = assay: as above; assay type: cell-based; settings: for Viral RNA Log10: no treatment 4.20
# Protocol: as §1
# echovirus 6 (EchoV 6) = assay: as above; assay type: cell-based; settings: EchoV 6, BGMK-DAF cells; for Viral RNA Log10: no treatment 5.00
# Protocol: as §1
# echovirus 7 (EchoV 7) = assay: as above; assay type: cell-based; settings: EchoV 7, BGMK-DAF cells; for Viral RNA Log10: no treatment 5.61
# Protocol: as §1
# enteroviruses = assay: In vitro inhibition of four enteroviruses in interferon pre-treated, chronically infected cells (summary); assay type: cell-based, enterovirus; settings: cells pre-treated with interferon to produce chronic infection; four enteroviruses tested
# Protocol: as §1
compound,measurement,setting,value
"O=C1CCC[C@@H]2[C@H]3CCC[N@+]4([O-])CCC[C@@H](CN12)[C@@H]34 [Oxymatrine, oxymatrine]",Dec Log10 (reduction of log viral RNA vs no-treatment wells),coxsackievirus B3 (CVB3); 1 μM oxymatrine,−6.24 Log10
same,Viral RNA Log10,coxsackievirus B3 (CVB3); 1 μM oxymatrine,0.60 Log10
same,Dec Log10 (reduction of log viral RNA vs no-treatment wells),coxsackievirus B3 (CVB3); 10 μM oxymatrine,−6.54 Log10
same,Viral RNA Log10,coxsackievirus B3 (CVB3); 10 μM oxymatrine,0.30 Log10
same,Dec Log10 (reduction of log viral RNA vs no-treatment wells),coxsackievirus B3 (CVB3); 100 μM oxymatrine,−5.54 Log10
same,Viral RNA Log10,coxsackievirus B3 (CVB3); 100 μM oxymatrine added 162 h post-infection,1.30 Log10
same,Dec Log10 (reduction of log viral RNA vs no-treatment wells),coxsackievirus B4 (CVB4); 1 μM oxymatrine,−0.55 Log10
same,Viral RNA Log10,coxsackievirus B4 (CVB4); 1 μM oxymatrine,3.66 Log10
same,Dec Log10 (reduction of log viral RNA vs no-treatment wells),coxsackievirus B4 (CVB4); 10 μM oxymatrine,−4.20 Log10
same,Viral RNA Log10,coxsackievirus B4 (CVB4); 10 μM oxymatrine,0.00 Log10
same,Dec Log10 (reduction of log viral RNA vs no-treatment wells),coxsackievirus B4 (CVB4); 100 μM oxymatrine,−3.90 Log10
same,Viral RNA Log10,coxsackievirus B4 (CVB4); 100 μM oxymatrine,0.30 Log10
same,Dec Log10 (reduction of log viral RNA vs no-treatment wells),echovirus 6 (EchoV 6); 1 μM oxymatrine,0.00 Log10
same,Viral RNA Log10,echovirus 6 (EchoV 6); 1 μM oxymatrine,5.00 Log10
same,Dec Log10 (reduction of log viral RNA vs no-treatment wells),echovirus 6 (EchoV 6); 10 μM oxymatrine,0.37 Log10
same,Viral RNA Log10,echovirus 6 (EchoV 6); 10 μM oxymatrine,5.37 Log10
same,Dec Log10 (reduction of log viral RNA vs no-treatment wells),echovirus 6 (EchoV 6); 100 μM oxymatrine,0.00 Log10
same,Viral RNA Log10,echovirus 6 (EchoV 6); 100 μM oxymatrine,5.00 Log10
same,Dec Log10 (reduction of log viral RNA vs no-treatment wells),echovirus 7 (EchoV 7); 1 μM oxymatrine,−0.28 Log10
same,Viral RNA Log10,echovirus 7 (EchoV 7); 1 μM oxymatrine,5.33 Log10
same,Dec Log10 (reduction of log viral RNA vs no-treatment wells),echovirus 7 (EchoV 7); 10 μM oxymatrine,−0.17 Log10
same,Viral RNA Log10,echovirus 7 (EchoV 7); 10 μM oxymatrine,5.45 Log10
same,Dec Log10 (reduction of log viral RNA vs no-treatment wells),echovirus 7 (EchoV 7); 100 μM oxymatrine,0.22 Log10
same,Viral RNA Log10,echovirus 7 (EchoV 7); 100 μM oxymatrine,5.83 Log10
same,Inhibition of enteroviruses in vitro,enteroviruses,significant inhibition of two out of four enteroviruses
